In patent publication US9120768B2, “Compositions and methods for treatment of cystic fibrosis and diseases associated with aberrant protein cellular processing” (The Hospital for Sick Children, priority 2010, dated 2015):

How the values were obtained:
delF508-CFTR [1] = target: T1, delF508-CFTR (Homo sapiens, UniProt P13569, DEL508-508); assay: Immunoblotting for delF508-CFTR maturation (band C); type: cell-based; set-up: expressed in transfected cells; host or cells: HEK293 MSR GripTite (293MSR-GT) cells, also stably expressing eYFP(H148Q/I152L); conditions: 10 μM, 48 hrs, 37° C., 293MSR-GT cells, anti-CFTR immunoblot; FIG. 2
T1 sequence (P13569 with tags, fused parts or gaps DEL508-508): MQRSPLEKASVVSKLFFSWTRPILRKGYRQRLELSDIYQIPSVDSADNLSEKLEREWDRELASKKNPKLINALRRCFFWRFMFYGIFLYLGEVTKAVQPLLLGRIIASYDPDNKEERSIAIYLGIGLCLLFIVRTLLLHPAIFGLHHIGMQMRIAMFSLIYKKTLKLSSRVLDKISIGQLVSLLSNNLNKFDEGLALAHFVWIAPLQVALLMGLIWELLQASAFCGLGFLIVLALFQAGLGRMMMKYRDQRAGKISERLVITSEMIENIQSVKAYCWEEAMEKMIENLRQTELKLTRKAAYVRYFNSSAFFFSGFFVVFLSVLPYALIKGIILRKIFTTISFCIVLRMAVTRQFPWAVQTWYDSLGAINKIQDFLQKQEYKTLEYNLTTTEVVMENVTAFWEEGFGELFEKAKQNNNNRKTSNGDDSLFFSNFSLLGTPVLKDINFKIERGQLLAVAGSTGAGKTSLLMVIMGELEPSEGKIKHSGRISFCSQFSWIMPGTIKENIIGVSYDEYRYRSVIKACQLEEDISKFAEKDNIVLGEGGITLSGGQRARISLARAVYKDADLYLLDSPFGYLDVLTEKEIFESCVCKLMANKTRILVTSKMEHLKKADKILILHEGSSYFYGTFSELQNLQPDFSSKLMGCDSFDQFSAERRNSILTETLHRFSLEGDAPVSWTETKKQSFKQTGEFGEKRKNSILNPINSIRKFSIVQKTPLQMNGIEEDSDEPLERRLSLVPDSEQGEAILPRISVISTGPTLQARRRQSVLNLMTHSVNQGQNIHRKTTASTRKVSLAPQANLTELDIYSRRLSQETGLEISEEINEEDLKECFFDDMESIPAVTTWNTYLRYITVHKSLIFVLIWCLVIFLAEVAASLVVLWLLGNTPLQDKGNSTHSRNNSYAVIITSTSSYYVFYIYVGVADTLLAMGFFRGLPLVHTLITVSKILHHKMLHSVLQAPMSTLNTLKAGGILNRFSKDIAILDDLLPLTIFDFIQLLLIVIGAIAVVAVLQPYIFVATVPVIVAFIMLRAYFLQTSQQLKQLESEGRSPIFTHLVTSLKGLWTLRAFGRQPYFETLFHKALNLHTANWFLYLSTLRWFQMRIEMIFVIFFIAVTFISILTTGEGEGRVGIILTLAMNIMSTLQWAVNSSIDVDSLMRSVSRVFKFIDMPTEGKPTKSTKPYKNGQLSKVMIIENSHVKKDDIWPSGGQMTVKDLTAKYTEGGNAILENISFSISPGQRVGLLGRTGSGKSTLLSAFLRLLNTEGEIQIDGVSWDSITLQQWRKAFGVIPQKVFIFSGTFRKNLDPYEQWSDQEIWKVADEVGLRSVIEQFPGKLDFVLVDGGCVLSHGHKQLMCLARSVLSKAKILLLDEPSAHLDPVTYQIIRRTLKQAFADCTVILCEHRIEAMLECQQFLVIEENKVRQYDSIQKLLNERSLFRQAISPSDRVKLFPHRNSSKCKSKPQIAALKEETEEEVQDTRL
Method: Protein expression and rescue of delF508-CFTR were validated by immunoblotting with anti-CFTR monoclonal antibodies (clone M3A7, Chemicon Cat.#MAB3480) as described previously^66. […] The rescue of delF508-CFTR was validated by Western blotting as described previously^66. […] Proteins were resolved on SDS-PAGE, transferred to nitrocellulose membranes and immunoblotted with anti-CFTR monoclonal antibodies (M3A7, 1 μg/ml) or anti-β-actin antibodies (1:10000). Membranes were washed with 5% Blotto, incubated with HRP-conjugated goat anti-mouse antibody (1:5000) and washed with PBST. Signal was detected with SuperSignal West Femto reagent.

inflammation = conditions: animal model, topical application; cited from earlier work
ERK2 = ERK2 (Homo sapiens, UniProt P28482); conditions: cited from earlier work
ERK2, sequence (P28482 whole entry, species assumed): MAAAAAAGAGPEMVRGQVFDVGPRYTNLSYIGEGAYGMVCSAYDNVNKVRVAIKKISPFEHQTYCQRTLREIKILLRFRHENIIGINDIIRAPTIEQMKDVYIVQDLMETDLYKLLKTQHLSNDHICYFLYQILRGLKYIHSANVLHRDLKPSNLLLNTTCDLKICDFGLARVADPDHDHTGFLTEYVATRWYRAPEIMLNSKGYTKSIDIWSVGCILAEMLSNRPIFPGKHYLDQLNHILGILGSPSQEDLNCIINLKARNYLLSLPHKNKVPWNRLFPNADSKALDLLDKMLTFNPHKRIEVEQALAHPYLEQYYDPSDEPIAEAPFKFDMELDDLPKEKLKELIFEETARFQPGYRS

delF508-CFTR [2] = target: T1, delF508-CFTR; assay: Short circuit current (Ussing chamber) in primary human bronchial epithelial cells; type: cell-based; set-up: primary cultures of human bronchial epithelia (HBE) obtained from transplant patients homozygous for the delF508 mutation; host or cells: primary human bronchial epithelial (HBE) cells from delF508/delF508 lung transplant patients; conditions: 10 μM, 48 hrs, HBE cells of delF508/delF508 patients, versus vehicle alone; FIGS. 5-7
TAK1 = TAK1 (Homo sapiens, UniProt O43318); conditions: competitive with ATP; cited from earlier work
TAK1, sequence (O43318 whole entry): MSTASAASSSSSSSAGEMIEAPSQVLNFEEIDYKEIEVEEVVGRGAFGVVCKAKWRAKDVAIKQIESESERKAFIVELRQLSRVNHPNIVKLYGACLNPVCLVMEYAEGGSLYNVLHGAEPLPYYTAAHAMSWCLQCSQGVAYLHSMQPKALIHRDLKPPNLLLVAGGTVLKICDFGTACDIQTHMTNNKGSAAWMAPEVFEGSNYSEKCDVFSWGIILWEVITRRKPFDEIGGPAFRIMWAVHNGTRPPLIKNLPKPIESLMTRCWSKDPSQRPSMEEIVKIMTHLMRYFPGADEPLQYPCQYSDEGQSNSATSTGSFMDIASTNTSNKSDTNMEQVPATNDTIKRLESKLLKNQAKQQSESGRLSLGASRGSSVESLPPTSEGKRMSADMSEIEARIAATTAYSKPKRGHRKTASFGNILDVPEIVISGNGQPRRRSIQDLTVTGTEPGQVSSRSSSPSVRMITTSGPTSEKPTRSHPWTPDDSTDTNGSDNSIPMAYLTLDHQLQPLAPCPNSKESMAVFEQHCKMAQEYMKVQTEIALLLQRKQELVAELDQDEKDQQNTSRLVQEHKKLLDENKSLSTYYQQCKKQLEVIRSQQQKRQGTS
TAK1, sequence (Q15750 whole entry partner): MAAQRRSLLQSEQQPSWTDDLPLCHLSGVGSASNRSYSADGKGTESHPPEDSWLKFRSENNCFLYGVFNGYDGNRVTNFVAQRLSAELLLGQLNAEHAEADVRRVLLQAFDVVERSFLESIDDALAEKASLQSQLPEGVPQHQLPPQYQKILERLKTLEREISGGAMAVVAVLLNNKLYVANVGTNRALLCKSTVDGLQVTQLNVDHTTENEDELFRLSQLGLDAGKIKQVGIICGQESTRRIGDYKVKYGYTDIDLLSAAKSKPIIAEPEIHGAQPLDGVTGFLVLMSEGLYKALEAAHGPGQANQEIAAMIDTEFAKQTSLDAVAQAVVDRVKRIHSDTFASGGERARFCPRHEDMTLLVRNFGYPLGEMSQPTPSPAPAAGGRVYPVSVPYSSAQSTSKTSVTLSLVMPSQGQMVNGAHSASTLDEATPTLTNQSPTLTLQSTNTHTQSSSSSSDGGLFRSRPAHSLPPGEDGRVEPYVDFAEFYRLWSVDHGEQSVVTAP

delF508-CFTR [3] = target: T1, delF508-CFTR; assay: Cellomics YFP quenching assay; type: cell-based; set-up: expressed in transfected cells; host or cells: HEK293 MSR GripTite (293MSR-GT) cells, also stably expressing eYFP(H148Q/I152L); conditions: 10 μM, 48 hrs, 37° C., 293MSR-GT cells, stimulated with FIG; FIG. 1
Method: Cellomics YFP quenching assay was performed as described previously^66. […] After 48 hrs of incubation the medium was replaced with 152 μl of chloride solution (137 mM NaCl, 2.7 mM KCl, 0.7 mM CaCl2, 1.1 mM MgCl2, 1.5 mM KH2PO4, 8.1 mM Na2HPO4, pH 7.1), in the absence or presence of FIG (25 M Forskolin, 45 μM IBMX, 50 μM Genistein) at 37° C. After 20 min incubation, 92 μl of iodide buffer (137 mM NaI, 2.7 mM KCl, 0.7 mM CaCl2, 1.1 mM MgCl2, 1.5 mM KH2PO4, 8.1 mM Na2HPO4, pH 7.1) was added (final concentration 52 mM) and the decrease in fluorescence intensity over time was recorded using the Cellomics VTI (ThermoFisher), at 30° C. […] After two days of incubation, cells were stimulated for 20 min with FIG mixture. They were then exposed to low Cl^−/high I^− medium by replacing 137 mM Na^+Cl^− with Na^+I^−, and fluorescence quenching of the cells due to Cl^−/I^− exchange (presumably via CFTR) was monitored and quantified over time by the Cellomics VTI reader.

293MSR-GT cells = assay: Sensitivity of 293MSR-GT cells toward compound; conditions: compound could not be tested by YFP quenching or immunoblotting

COc1cc(O)c2c(c1)/C=C/C[C@H](O)[C@H](O)C(=O)/C=C\C[C@H](C)OC2=O [(5Z)-7-oxozeaenol, (3S,5Z,8S,9S,11E)-3,4,9,10-tetrahydro-8,9,16-trihydroxy-14-methoxy-3-methyl-1H-2-benzoxacyclotetradecin-1,7(8H)-dione]
appearance of mature delF508-CFTR protein (band C) (delF508-CFTR [1]): led to the appearance of the mature band C, similar to that seen with corr-4-a | prevention of inflammation (inflammation): effectively prevent inflammation in an animal model | ERK2 enzyme activity inhibition (ERK2): inhibit ERK2 enzyme activity | delF508-CFTR chloride channel activity (short-circuit current) (delF508-CFTR [2]): enhanced activity of the mutant CFTR | TAK1 inhibition (TAK1): irreversibly inhibits TAK1 | delF508-CFTR activity (fluorescence quenching due to Cl-/I- exchange) (delF508-CFTR [3]): restores delF508-CFTR activity to a level that is similar to that obtained with corr-4-a

Cc1c[nH]c(/C=C2\C(=O)Nc3ccccc32)c1CCC(=O)O [SU5402, 3-[4-methyl-2-[(Z)-(2-oxo-1H-indol-3-ylidene)methyl]-1H-pyrrol-3-yl]propanoic acid]
appearance of mature delF508-CFTR protein (band C) (delF508-CFTR [1]): led to the appearance of the mature band C, similar to that seen with corr-4-a | delF508-CFTR chloride channel activity (short-circuit current) (delF508-CFTR [2]): enhanced activity of the mutant CFTR | delF508-CFTR activity (fluorescence quenching due to Cl-/I- exchange) (delF508-CFTR [3]): restores delF508-CFTR activity to a level that is similar to that obtained with corr-4-a

Cc1[nH]c(/C=C2\C(=O)Nc3ccccc32)c(C)c1CCC(=O)O [SU6668, 3-[2,4-dimethyl-5-[(Z)-(2-oxo-1H-indol-3-ylidene)methyl]-1H-pyrrol-3-yl]propanoic acid]
sensitivity of 293MSR-GT cells toward compound (293MSR-GT cells): increased sensitivity | delF508-CFTR chloride channel activity (short-circuit current) (delF508-CFTR [2]): enhanced activity of the mutant CFTR
